Experimental data: patent US20260174682A1, “GAMMA-AMINOBUTYRIC ACID DERIVATIVE COMPRISING POLYCYCLIC STRUCTURE, METHOD FOR PREPARING SAME, AND USE THEREOF” (ZHONGSHAN INSTITUTE FOR DRUG DISCOVERY, SIMM, CAS., priority 2022, published 2026)
Marks after values point to notes of the source that are not given here.

What was measured:
Format in all cases: in vivo
[1] = test system: mouse 6-Hz psychomotor seizure model; experiment: Antiepileptic effect in mouse 6-Hz psychomotor seizure model; conditions: 6-Hz model, C57BL/6 mice, gavage
Description: A negative vehicle control group, a positive drug control group (pregabalin and gabapentin) and a test group of the compounds of the present application were set. Male C57BL/6 mice with a body weight of 20±2 g were selected. […] After fasted for 12 h, the mice were administered the compounds of the present application or the control drugs, and then subjected to 6-Hz electrical stimulation to induce epilepsy seizure behaviors after a certain time interval (2 h for pregabalin, 1 h for gabapentin, 1 h for levetiracetam, and 3 h for the compounds of the present application). In an induction model, when the stimulation was performed with a Model 4100 stimulator (A-M Systems, the United States), rear necks of the mice were immobilized by hands on a feeding cage, a corneal electrode was moisten with normal saline and allowed to gently contact bilateral corneas of the mice, the electrical stimulator was trod by a foot to give the mice the electrical stimulation with a stimulation parameter of 6-Hz, a one-way square wave of 32 mA, a wave width of 0.2 ms and a stimulation duration of 3 sec, and timing was performed with a stopwatch during the stimulation. After the electrical stimulation was completed, the mice with the seizure behaviors lasting for less than 7 sec were regarded as being protected by the drugs, and the mice with the seizure behaviors lasting for more than 7 sec were regarded as being not protected from the epilepsy by the drugs. Response situations of the animals were observed and recorded, and obtained data were counted to calculate protection rates of the compounds.
Statistical method: The protection rates of different administration groups were separately compared with that of the vehicle control group to carry out a Fisher's exact test.

[2] = test system: Sprague Dawley (SD) rat spared nerve injury (SNI) model; experiment: Analgesic effect in rat spared nerve injury (SNI) chronic neuropathic pain model; conditions: SNI rats
Description: Establishment of the SNI model: Surgery was performed according to an aseptic operation method, and various surgical instruments, including scalpels, tweezers, suture needles/threads, surgical cotton, etc., were disinfected before the surgery. Animals were anesthetized by intraperitoneal injection of a Zoletil™ 50 solution at 50 mg/kg and then placed in lateral decubitus positions. After hair in surgical areas of lower bodies of animals was shaved, the animals were disinfected alternately with iodophor and 75% alcohol. The skin was cut at upper edges of left hind limbs, muscles were bluntly separated to expose a sciatic nerve trunk and 3 branches thereof, i.e., a tibial nerve, a common peroneal nerve and a sural nerve. The tibial nerve and the common peroneal nerve were ligated and cut, and the sural nerve was preserved and maintained intact. After the surgery, wounds were sutured layer by layer, the animals were administered with 25% ampicillin (1 mL/kg) through intraperitoneal injection to prevent infection, and routine nursing was performed. In sham group, only the sciatic nerve and the branches thereof were exposed, the nerves were not ligated and cut, and other operations were the same as those in the model group. Detection of a mechanical pain threshold: A Von-frey test fiber was used to detect the mechanical pain threshold of the sole of an operative side of each animal on day 1, day 3 and day 7 after the surgery, respectively. An “up-and-down” method was used as a method of detecting the mechanical pain threshold at the stimulation intensity of 0.4, 0.6, 1, 2, 4, 6, 8, and 15 g. During the test, the test fiber was used to vertically stimulate the site, close to an outer side, in the sole center of the left hind paw of a rat for 6-8 seconds each time at an interval of 5 seconds. A pain response was shown as an obvious paw withdrawal, paw licking, or paw lifting behavior of the animals during each test. From day 11 after the surgery, the animals were placed in an experimental environment for adaptation, wherein the adaptation was performed continuously for 15 min per day for 3 days. On day 13, a basic value of mechanical pain hypersensitivity was detected after the adaptation was completed. The mechanical pain hypersensitivity was expressed by a 50% paw-withdrawal threshold (PWT) according to a calculation formula of 50% PWT (g)=10^xf+kδ, wherein xf is a log value of a fiber test force, k is a tabular value, and δ is an average spacing of the log value of the fiber test force.
Pharmacodynamic evaluation: According to basic threshold detection results on day 13 after the surgery, the animals in the model group without the mechanical pain hypersensitivity, that is, the PWT was greater than 4 g, were excluded, and the other successfully modeled animals were used for a formal test. On day 14 after the surgery, various compound to be tested were newly formulated. Pregabalin was directly dissolved with 0.9% sodium chloride at a dose of 30 mg/kg to obtain a solution at a desired concentration. (±)—I-7, (±)—I-3 and (±)—I-4 p-toluenesulfonate were also completely dissolved with a 0.9% sodium chloride solution at a dose of 30 mg/kg (calculated by free base). The successfully modeled animals were randomly divided into 5 groups with 8 animals in each group. In addition, 7 animals were selected in the sham group. […] The mechanical pain hypersensitivity response of the left hind paw was detected at 1 h, 2 h, 4 h, 6 h, 8 h, 10 h, and 24 h after the administration. Evaluation was performed by using a blind method, and a detection method was the same as above. An area under a mechanical pain threshold-time curve (AUC) was calculated using GraphPad Prism Version 8.0.1 software.

[3] = test system: mouse maximum electroshock model (MES); experiment: Antiepileptic effect in mouse maximum electroshock model (MES); conditions: gavage; for Number of animals with tonic straightening of hind limbs/total number of detected animals / Protection rate (%): MES, ICR mice
Description: A negative vehicle control group, a positive drug control group (pregabalin and gabapentin) and a test group of the compounds of the present application were set. Male ICR mice with a body weight of […] were selected. […] After fasted for 12 h, the mice were administered the compounds of the present application or the control drugs according to the body weight, and then subjected to electrical stimulation to induce generalized tonic-clonic seizure behaviors after a certain lime interval (2 h for pregabalin, 1 h for gabapentin, and 3 h for the compounds of the present application). A YLS-9A electrophysiological stimulator (Shanghai Xinruan Information Technology Co., Ltd.) was used in an induction model, and parameters were set as follows: configuration 8, stimulation voltage 160 V, wave number 90. When the electrical stimulation was performed, ears on both sides of the mice were firstly wiped with normal saline and then given the electrical stimulation for 1 lime with ear clip electrodes. Tonic straightening of hind limbs was used as a standard for epilepsy seizures. The animals with the tonic straightening of hind limbs were regarded as not being protected by the drugs, and the animals without the tonic straightening of hind limbs were regarded as being protected by the drugs. Response situations of the animals were observed and recorded, and obtained data were counted to calculate protection rates of the compounds.
Median effective doses (ED50) of the compounds to be tested for animal protection were calculated by a least square method (Graphpad Prism 5) with an administration dose-protection rate curve.

[4] = dose 60 mg/kg (calculated by free base)
[5] = oral gavage 10 mg/kg (calculated by free base), from AUC of mechanical pain threshold-time curve to 24 h
[6] = dose 3 mg/kg (own compounds calculated by free base)
[7] = dose 6 mg/kg (own compounds calculated by free base)
[8] = dose 10 mg/kg (own compounds calculated by free base)
[9] = dose 18 mg/kg (own compounds calculated by free base)
[10] = dose 30 mg/kg (own compounds calculated by free base)
[11] = dose 60 mg/kg (own compounds calculated by free base)

Row | SMILES | maximum possible effect (MPE) [2, 5] [%] | Number of animals with tonic straightening of hind limbs/total number of detected animals [3, 6] | Protection rate (%) [3, 6] [%] | Number of animals with tonic straightening of hind limbs/total number of detected animals [3, 7] | Protection rate (%) [3, 7] [%] | Number of animals with tonic straightening of hind limbs/total number of detected animals [3, 8] | Protection rate (%) [3, 8] [%] | Number of animals with tonic straightening of hind limbs/total number of detected animals [3, 9] | Protection rate (%) [3, 9] [%] | Number of animals with tonic straightening of hind limbs/total number of detected animals [3, 10] | Protection rate (%) [3, 10] [%] | Number of animals with tonic straightening of hind limbs/total number of detected animals [3, 11] | Protection rate (%) [3, 11] [%] | further results
1 | Cc1ccc(S(=O)(=O)O)cc1.NCC1(CC(=O)O)CC2C3C=CC(C3)C21 (single isomer, unassigned; (+)) [(+)-I-4 p-toluenesulfonate] | 69.09 | 7/8 | 12.5 | 6/8 | 25 | 7/8 | 12.5 | 7/12 | 41.7 | 3/8 | 62.5 | 1/6 | 83.3 | Number of animals with clonic seizures/total number [1, 4]: 2/4; Protection rate (%) [1, 4]: 50.0 * %; area under the mechanical pain threshold-time curve compared with the vehicle control group ([2]; oral gavage 10 mg/kg (calculated by free base)): significantly improved; Median effective dose (ED50) for animal protection ([3]; MES mice, least square fit of administration dose-protection rate curve): 21.51 mg/kg
2 | CC(C)C[C@H](CN)CC(=O)O [Pregabalin] | 23.04 | 9/12 | 25 | 10/12 | 16.67 | 6/12 | 50 | 5/12 | 58.33 | 4/20 | 80 | 1/12 | 91.66 | Number of animals with clonic seizures/total number ([1]; dose 30 mg/kg): 1/6**; Protection rate (%) ([1]; dose 30 mg/kg): 83.3 *** %; maximum possible effect (% MPE) ([2]; oral gavage 30 mg/kg (calculated by free base), from AUC of mechanical pain threshold-time curve to 24 h): 110.90%; ED50 ([3]; Mus musculus, po, MES mice, least square fit of administration dose-protection rate curve, read-out: Median effective dose (ED50) for animal protection): 12 mg/kg
